Tested on in the first series: not given
Test: not given
As to conditions: cited from earlier work.
On to `COc1ccc2[nH]cc(CCNC(C)=O)c2c1` [melatonin, N-acetyl-5-methoxytryptamine], for which the oral bioavailability result was “often low and variable”.

A further series deals with T1, human ML1a (Homo sapiens, UniProt P48039).
T1 construct: expressed in transfected cells; host or cells: COS-1 cells (transient, DEAE-dextran), membrane homogenate
T1 sequence (P48039 whole entry): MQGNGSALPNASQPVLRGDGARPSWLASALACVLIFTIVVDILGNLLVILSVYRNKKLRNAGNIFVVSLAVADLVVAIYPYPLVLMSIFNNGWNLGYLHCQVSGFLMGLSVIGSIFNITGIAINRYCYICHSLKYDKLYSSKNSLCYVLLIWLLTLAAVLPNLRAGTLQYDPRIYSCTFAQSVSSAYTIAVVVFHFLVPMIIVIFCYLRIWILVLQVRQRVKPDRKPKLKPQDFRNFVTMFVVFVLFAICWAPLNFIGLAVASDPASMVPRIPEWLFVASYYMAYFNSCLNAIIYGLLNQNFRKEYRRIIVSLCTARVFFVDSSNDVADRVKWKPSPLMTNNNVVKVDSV
Briefly: Measurement of Melatonergic Binding (human ML1a binding assay, 2-[125I]-iodomelatonin, COS-1 cell membranes). Particulars: 2-[125I]-iodomelatonin 100 pM, 37° C. for 1 hour. As for the experimental part:
Example 35 sets out the human ML1a binding assay used to test activity.
Measurement of Melatonergic Binding
(a) 50 mM Tris buffer containing 12.5mM MgCl2 and 2mM EDTA (pH 7.4 at 37° C.).
(b) Wash buffer: 20mM Tris base containing 2mM MgCl2 (pH 7.4 at room temperature).
(c) 6-Chloromelatonin (10^-5 M final concn.).
(d) 2-[^125 I]-iodomelatonin (100 pM final concn.). Source: NEN
2. Membrane preparation. The cDNA (human ML1A) was introduced into COS-1 cells by the DEAE-dextran method. Three days later, the media was removed, the plates washed with phosphate buffered saline, the cells removed using Hank's balanced salt solution and pelleted. The supernatant was discarded and the pellets frozen. For preparing membrane homogenates, pellets are thawed on ice, and resuspended in TME buffer, Tris base, MgCl2, EDTA (pH 7.4 at 37° C.), supplemented with aprotinin, leupeptin, and phenylmethlysulfonylfluoride. The cells were then homogenized using a dounce homogenizer, and centrifuged. The resulting pellet was resuspended with a dounce homogenizer in TME and frozen. On the day of assay, the small aliquot was thawed on ice and resuspended in TME buffer.
3. Incubation: 37° C. for 1 hour. Reaction is terminated by filtration.
The procedure was based on that disclosed in: Reppert, S. M., Weaver, D. R., and Ebisawa, R. (1994), Neuron, 13, 1177-1185 (1994).
`CNC(=O)NCCn1c2cc(OC)ccc2c2ccc(OC)cc21` [Example 26, N-[2-(2,7-Dimethoxy-9H -carbazol-9-yl)ethyl]-N'-methylurea]: the IC50 is < 100 nM.

On to `CCCC(=O)NCCn1c2ccccc2c2ccc(OC)cc21` [Example 15, N-[2-(2-Methoxy-9H-carbazol-9-yl)ethyl]butanamide], for which the IC50 was < 100 nM.

Take `CCNC(=O)NCCn1c2cc(OC)ccc2c2ccc(OC)cc21` [Example 27, N-Ethyl-N'-[2-(2,7-dimethoxy-9H-carbazol-9-yl)ethyl]urea]: the IC50 was < 100 nM.

`COc1ccc2c3ccc(OC)cc3n(CCNC(=O)CS(C)(=O)=O)c2c1` [Example 22, N-[2-(2,7-Dimethoxy-9H-carbazol-9-yl)ethyl]-2-(methanesulfonyl)acetamide]: the half-inhibitory concentration (IC50) is ≥ 250 nM.

For the compound `COc1ccc2c3ccc(OC)cc3n(CCNC(=O)CSC)c2c1` [Example 21, N-[2-(2,7-Dimethoxy-9H-carbazol-9-yl)ethyl]methylthioacetamide], the IC50 is < 100 nM.

Regarding `CCCC(=O)NCCCn1c2cc(OC)ccc2c2ccc(OC)cc21` [Example 10, N-[3-(2,7-Dimethoxy-9H-carbazol-9-yl)propyl]butanamide], the IC50 is < 100 nM.

In the case of `CCCC(=O)NCCn1c2cc(OC)ccc2c2ccc(OC)cc21` [Example 18, N-[2-(2,7-Dimethoxy-9H-carbazol-9-yl)ethyl]butanamide], the IC50 lay in the range of 100 to 250 nM.

Compound `COc1ccc2c3ccc(OC)cc3n(CCNC(=O)C(C)C)c2c1` [Example 19, N-[2-(2,7-Dimethoxy-9H-carbazol-9-yl)ethyl]-2-methylpropanamide] had an IC50 of 100 to 250 nM.

As for `COc1ccc2c3ccc(OC)cc3n(CCCNC(C)=O)c2c1` [Example 8, N-[3-(2,7-Dimethoxy-9H-carbazol-9-yl)propyl]acetamide], the IC50 is < 100 nM.

For `COc1ccc2c3ccc(OC)cc3n(CCNC(=O)C3CC3)c2c1` [Example 20, N-[2-(2,7-Dimethoxy-9H-carbazol-9-yl)ethyl]cyclopropanecarboxamide], the IC50 is < 100 nM.

Consider `COc1ccc2c3ccc(OC)cc3n(CCCNC(=O)C(C)C)c2c1` [Example 11, N-[3-(2,7-Dimethoxy-9H-carbazol-9-yl)propyl]-2-methylpropanamide], for which the IC50 is 100 to 250 nM.

On to `CCC(=O)NCCCn1c2cc(OC)ccc2c2ccc(OC)cc21` [Example 9, N-[3-(2,7-Dimethoxy-9H-carbazol-9-yl)propyl]propanamide], for which the half-inhibitory concentration (IC50) is < 100 nM.

The compound `COc1ccc2c3ccccc3n(CCNC(=O)C3CC3)c2c1` [Example 17, N-[2-(2-Methoxy-9H-carbazol-9-yl)ethyl]cyclopropanecarboxamide] displayed a concentration for half-maximal inhibition (IC50) of 100 to 250 nM.

The test system of a further series is circadian rhythms in rats.
Test: not given
Particulars: exogenous melatonin administration, Cassone et al. 1986; cited from earlier work.
As for `COc1ccc2[nH]cc(CCNC(C)=O)c2c1` [melatonin, N-acetyl-5-methoxytryptamine], the “synchronization of circadian rhythms” value was “found to synchronize circadian rhythms in rats”.

These data come from patent US5677328A, “Ethylamino carbazole melatonergic agents” (Bristol-Myers Squibb Company, priority 1996, dated 1997).
